# Patent US4474777A, “Benzodiazepine derivatives and their pharmaceutical use” (Hoffmann-La Roche Inc., priority 1982, dated 1984)
# Assays:
# [1] = test system: intestinal resorption of cholesterol; experiment: inhibition of the intestinal resorption of cholesterol (CHORES), radioactive cholesterol test feed, faeces radioactivity; type: in vivo, normal female albino rats; details: rats, 100 μmol/kg p.o.; faeces collected for three days; untreated control = 100%
# Description: The substances to be investigated are administered to groups each comprising 6 normal female albino rats (body weight about 70 g) by means of a probang. Immediately thereafter the animals received by means of a probang a test feed containing a radioactive cholesterol. Thereafter, the faeces is collected for three days, freeze-dried and pulverized, and an aliquot is burnt in order to determine the radioactivity of the faeces. Untreated control animals excrete about 40-50% of the radioactive cholesterol taken up with the feed. The radioactive cholesterol which is not excreted is regarded as the resorbed cholesterol, the amount of resorbed cholesterol in the untreated control animals being arbitrarily fixed as 100%. Animals which have been treated with a substance inhibiting the intestinal resorption of cholesterol show a lower resorption of radioactive cholesterol than untreated control animals. The cholesterol resorption (CHORES) is expressed in percentages of the cholesterol resorption of untreated control animals.
# (§1) In the following Table there are given the results obtained with representative products provided by the invention. There are given for each of the compounds listed therein the dosage administered (in μmol/kg p.o.) as well as the cholesterol resorption (CHORES) determined in percentages of the cholesterol resorption of untreated control animals. Moreover, the Table contains information concerning the acute toxicity of the compounds investigated (LD50 in mg/kg in the case of single oral administration to mice).
# [2] = acute toxicity, single oral administration to mice; details: mouse, in vivo, single oral administration (p.o.)
# Text: as §1
Structure (SMILES),CHORES (cholesterol resorption in percentages of the cholesterol resorption of untreated control animals) [1] [%],LD50 [2] [mg/kg]
C[C@@H]1N=C(c2ccccc2Cl)c2c(ccc(NC(=O)NCC3COC(C)(C)O3)c2Br)N(C)C1=O (some centres unmarked),25,–
C[C@@H]1N=C(c2ccccc2Cl)c2c(ccc(NC(=O)NC3CCC(O)CC3)c2Br)N(C)C1=O (some centres unmarked),34,–
C[C@@H]1N=C(c2ccccc2Cl)c2c(ccc(NC(=O)N3CCCC(O)C3)c2Br)N(C)C1=O (some centres unmarked),44,–
"C[C@@H]1N=C(c2ccccc2Cl)c2c(ccc(NC(=O)NC(CO)(CO)CO)c2Br)N(C)C1=O [NHC(CH2 OH)3, 1-[(S)-6-bromo-5-(o-chlorophenyl)-2,3-dihydro-1,3-dimethyl-2-oxo-1H-1,4-benzodiazepin-7-yl]-3-[2-hydroxy-1,1-bis(hydroxymethyl)ethyl]urea]",30,> 5000
"C[C@@H]1N=C(c2ccccc2Cl)c2c(ccc(NC(=O)NC(C)(CO)CO)c2Br)N(C)C1=O [NHC(CH3)(CH2 OH)2, 1-[(S)-6-bromo-5-(o-chlorophenyl)-2,3-dihydro-1,3-dimethyl-2-oxo-1H-1,4-benzodiazepin-7-yl]-3-[1,1-bis(hydroxymethyl)ethyl]urea]",31,> 5000
"C[C@@H]1N=C(c2ccccc2Cl)c2c(ccc(NC(=O)NCC(O)CO)c2Br)N(C)C1=O (stereo partly drawn) [NHCH2 CH(OH)CH2 OH, 1-[(S)-6-bromo-5-(o-chlorophenyl)-2,3-dihydro-1,3-dimethyl-2-oxo-1H-1,4-benzodiazepin-7-yl]-3-(2,3-dihydroxypropyl)urea]",24,–
